According to US6015805A, “17β-nitro-11β-arylisteroids and their derivatives having agonist or antagonist hormonal properties” (Research Triangle Research North Carolina, priority 1999, dated 2000):

How the values were obtained:
[1] = system: human T-47D breast cells; experiment: T47D cell proliferation, agonist format; type: cell-based; settings: maximum % stimulation at any dose, 0.01 to 10 nM
Method: (§1) Human T-47D breast cells grown in nutrient media were incubated with the standard progestin R5020 alone or with R5020 plus test compound and then assessed by standard procedures for proliferation using incorporation of [^3 H]-thymidine as the measurement. […] The maximum % inhibition (a measure of the efficacy of the compounds) is also given. In the agonist format of this assay the compounds were tested at concentrations ranging from 0.01 to 10 nM and the maximum % stimulation at any dose is listed in Table 3.

[2] = system: human T-47D breast cells; experiment: T47D cell proliferation, antagonist format (inhibition of R5020-mediated [^3 H]-thymidine incorporation); type: cell-based; settings: for EC50: Homo sapiens, T47D, concentration which inhibits 0.15 nM R5020-mediated proliferation by 50%; for Cell Proliferation, Antagonist Format % inhibition: maximum % inhibition, 0.15 nM R5020
Method: as §1

[3] = molecular target: T1, human progesterone hormone receptor (hPR) (Homo sapiens, UniProt P06401); experiment: Receptor binding (human), inhibition of [^3 H]-R5020 binding; settings: cytosol from human T-47D cells; 0.4 nM [^3 H]-R5020; 4 hours at 4° C.
T1 construct: The receptor was obtained in cytosol from human T-47D breast cells; endogenous in cells; host or cells: T-47D human breast cells (cytosol)
T1 sequence (P06401 1-933): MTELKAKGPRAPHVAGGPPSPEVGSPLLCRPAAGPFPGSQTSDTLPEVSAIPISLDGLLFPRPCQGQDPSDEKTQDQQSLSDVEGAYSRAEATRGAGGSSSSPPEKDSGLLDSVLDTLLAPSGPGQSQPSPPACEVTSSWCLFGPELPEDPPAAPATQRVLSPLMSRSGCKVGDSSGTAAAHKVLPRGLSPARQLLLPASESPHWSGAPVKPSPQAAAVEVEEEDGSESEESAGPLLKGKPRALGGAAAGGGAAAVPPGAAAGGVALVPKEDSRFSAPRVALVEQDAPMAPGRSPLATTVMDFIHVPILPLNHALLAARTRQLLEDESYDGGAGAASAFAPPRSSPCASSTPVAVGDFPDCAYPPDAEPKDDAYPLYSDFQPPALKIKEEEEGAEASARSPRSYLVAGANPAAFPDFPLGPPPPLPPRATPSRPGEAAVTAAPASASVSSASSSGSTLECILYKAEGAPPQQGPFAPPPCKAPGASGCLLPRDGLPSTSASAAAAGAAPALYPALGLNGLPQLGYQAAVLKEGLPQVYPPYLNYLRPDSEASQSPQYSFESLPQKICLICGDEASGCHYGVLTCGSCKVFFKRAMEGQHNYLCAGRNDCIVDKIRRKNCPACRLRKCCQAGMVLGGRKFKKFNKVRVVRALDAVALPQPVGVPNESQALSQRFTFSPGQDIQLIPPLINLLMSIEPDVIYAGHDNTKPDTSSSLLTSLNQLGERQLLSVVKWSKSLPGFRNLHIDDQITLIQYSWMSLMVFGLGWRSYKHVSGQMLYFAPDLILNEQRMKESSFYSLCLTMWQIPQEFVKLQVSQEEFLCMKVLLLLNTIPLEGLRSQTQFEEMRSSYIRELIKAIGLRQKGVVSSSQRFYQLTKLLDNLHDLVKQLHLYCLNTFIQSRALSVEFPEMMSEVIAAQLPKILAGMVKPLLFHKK
Method: The affinity of the compounds for hormone receptors for progestins and glucocorticoids from rabbits was determined by standard procedures similar to those that have been described in C. E. Cook, et al., Human Reproduction, Volume 9, supplement 1, pp. 32-39 (1994). However, the source of the glucocorticoid receptor was the thymus of the estrogen-primed immature female rabbit. The affinity of the compounds for the human progesterone hormone receptor was determined by standard procedures similar to those that have been described in Horwitz, et al., Cell, 28: 633-42 (1982) and Mockus, et al., Endocrinology, 110: 1564-71 (1982). The receptor was obtained in cytosol from human T-47D breast cells and [^3 H]-R5020 was used as the radioligand. T47D cells (1 billion/mL) were homogenized in TEDG buffer (10 mM Tris, 1.5 mM EDTA, 1 mM dithiothreitol, 1 mM sodium molybdate, and 10% glycerol) using a Dounce pestle A, and the homogenate was centrifuged at 34,000×g for 1 hour. The supernatant was stored at -80° C. An aliquot of receptor preparation was combined with test compound, 0.4 nM [^3 H]-R5020, and TEDG buffer to a final volume of 150 ,μL and incubated for 4 hours at 4° C. in microtiter plates. At the end of incubation 40 μL 40% polyethylene glycol and 15 μL 1% human gamma globulin was added to the incubate and the contents of each well were harvested onto double thick B filter mats (Wallac LKB) using a TomTec harvester. A film of Meltilux scintillant wax was applied to the dried filter mats and the mats were counted in a scintillation counter to determine inhibition of [^3 H]-R5020 binding. Data are expressed as lC50 values, i.e., the concentration of compound that inhibits radioligand binding by 50%.

Compound	Emax [1] [%]	EC50 [2] [nM]	Cell Proliferation, Antagonist Format % inhibition [2] [%]	IC50 [3] [nM]
CC#C[C@]1([N+](=O)[O-])CC[C@H]2[C@@H]3CCC4=CC(=O)CCC4=C3[C@@H](c3ccc(C(C)=O)cc3)C[C@@]21C [I 4-CH3 CO H O H --CC--CH3, 11β-(4-Acetylphenyl)-17β-nitro-17α-(1-propynyl)estra-4,9-dien-3-one]	35	3.3	90	0.8
CC(=O)c1ccc([C@H]2C[C@@]3(C)[C@@H](CC[C@]3(/C=C/CO)[N+](=O)[O-])[C@@H]3CCC4=CC(=O)CCC4=C32)cc1 [I 4-CH3 CO H O H CH=CHCH2 OH, 11β-(4-acetylphenyl)-17α-(E-3-hydroxy-1-propenyl)-17β-nitroestra-4,9-dien-3-one]	52	122	86	26.1
CC(=O)c1ccc([C@H]2C[C@@]3(C)[C@@H](CC[C@]3(CCCO)[N+](=O)[O-])[C@@H]3CCC4=CC(=O)CCC4=C32)cc1 [I 4-CH3 CO H O H --(CH2)3 OH, 11β-(4-Acetylphenyl)-17α-(3-hydroxypropyl)-17β-nitroestra-4,9-dien-3-one]	41	175	96	16
CN(C)c1ccc([C@H]2C[C@@]3(C)[C@@H](CC[C@]3(CCCO)[N+](=O)[O-])[C@@H]3CCC4=CC(=O)CCC4=C32)cc1 [I 4-Me2 N H O H --(CH2)3 OH, 11β-[4-(N,N-Dimethylamino)phenyl]-17α-(3-hydroxypropyl)-17β-nitroestra-4,9-dien-3-one]	33	12	89	4.1
CC1=[N+]([O-])C2(CC1)CCC1C3CCC4=CC(=O)CCC4=C3C(c3ccc(N(C)C)cc3)CC12C (stereo not drawn) [II 4-Me2 N H O H -- CH3, 3',4'-dihydro-11β-(4-(N,N-dimethylamino)phenyl)-5'-methyl-1'-oxo-spiro[estra-4,9-dien-17β,2'(2'H)-pyrrole]-3-one]	–	–	–	10.2
